Assays:
[1] = target: T1, human full-length glucocorticoid receptor (Homo sapiens, UniProt P04150); experiment: Glucocorticoid Receptor Binding Assay (II), fluorescence polarization, FITC-dexamethasone; parameters: recombinantly expressed human full-length glucocorticoid receptor; purchased PanVera Co., Madison P2816
T1 sequence (P04150 1-777): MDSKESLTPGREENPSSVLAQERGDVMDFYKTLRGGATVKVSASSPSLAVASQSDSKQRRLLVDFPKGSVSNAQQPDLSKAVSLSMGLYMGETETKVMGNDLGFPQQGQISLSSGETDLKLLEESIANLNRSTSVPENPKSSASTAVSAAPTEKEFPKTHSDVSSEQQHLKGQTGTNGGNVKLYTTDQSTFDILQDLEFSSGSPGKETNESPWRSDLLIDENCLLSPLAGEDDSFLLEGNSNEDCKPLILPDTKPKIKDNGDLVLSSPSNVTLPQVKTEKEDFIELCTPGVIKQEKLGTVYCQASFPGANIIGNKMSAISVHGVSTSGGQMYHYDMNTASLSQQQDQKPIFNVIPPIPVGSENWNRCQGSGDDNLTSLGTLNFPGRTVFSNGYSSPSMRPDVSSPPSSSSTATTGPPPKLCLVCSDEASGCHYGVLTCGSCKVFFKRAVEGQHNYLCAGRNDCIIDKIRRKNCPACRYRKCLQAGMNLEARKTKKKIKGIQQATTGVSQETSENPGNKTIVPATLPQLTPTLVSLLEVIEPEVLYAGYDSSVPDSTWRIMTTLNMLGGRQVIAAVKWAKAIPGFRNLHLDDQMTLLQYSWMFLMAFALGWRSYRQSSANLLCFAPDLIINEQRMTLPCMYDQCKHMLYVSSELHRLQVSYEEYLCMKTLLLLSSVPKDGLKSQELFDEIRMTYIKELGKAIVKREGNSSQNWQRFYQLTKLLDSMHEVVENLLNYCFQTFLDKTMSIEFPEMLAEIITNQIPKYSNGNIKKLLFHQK
Protocol: Glucocorticoid Receptor Binding Assay (II)^b
In order to measure the binding of compounds on the glucocorticoid receptor a commercially available kit was used (Glucocorticoid receptor competitor assay kit, PanVera Co., Madison, W1, P2816). Briefly, a cell lysate containing recombinantly expressed human full-length glucocorticoid receptor was mixed with a fluorescently labeled glucocorticoid (4 nM FITC-dexamethasone) plus or minus test molecule. After one hour at room temperature, the fluorescence polarization (FP) of the samples were measured. […] Test molecules were analyzed in the concentration range from 0.1 nM to 40 μM.

[2] = target: T1, human full-length glucocorticoid receptor; experiment: Glucocorticoid Receptor Binding Assay (I), fluorescence polarization, Fluormone GS Red; parameters: purified human recombinant full-length glucocorticoid receptor; purchased Invitrogen Part #2893
In short: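 Fluorescence polarization competition: 2 nM purified full-length recombinant receptor with 1 nM Fluormone GS Red tracer, ±test compound over 8.5E-05 to 5 μM. Incubation was 2 h at room temperature in the dark before reading FP.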

[3] = GR Binding Assay (II), read-out: GR (Ki, nM) (GR Binding Assay (II))
[4] = GR Binding Assay (I), read-out: GR (Ki, nM) (GR Binding Assay (I))

| Ki [1, 3] | Ki [2] | Ki [2, 4] | Ki [1] | SMILES |
| --- | --- | --- | --- | --- |
| 10.9 nM |  |  |  | CC(C)(C(=O)Nc1nncs1)[C@H]1c2ccccc2Oc2nc(NC(=O)c3ccccc3)ccc21 [Example 152] |
| 186 nM |  |  |  | CC(C)Nc1ccc2c(n1)Oc1ccccc1C2C(C)(C)C(=O)Nc1nccs1 (stereo not shown) [Example 157] |
| 256 nM |  |  |  | COc1ccc(-c2ccc3c(n2)Oc2ccccc2[C@H]3C(C)(C)C(=O)Nc2nncs2)cc1 [Example 162] |
|  | 64.6 nM |  | 37.9 nM | Cc1cccc(-c2ccc3c(n2)Oc2ccccc2[C@@H]3C(C)(C)C(=O)Nc2nncs2)c1 [Example 179] |
| 84.6 nM |  | 386 nM |  | CC(C)(C(=O)Nc1nncs1)[C@H]1c2ccccc2Oc2nc(-c3ccc4ccccc4c3)ccc21 [Example 186] |
| 34.4 nM |  | 33.1 nM |  | CC(C)(C(=O)Nc1nncs1)[C@H]1c2ccccc2Oc2nc(-c3cccnc3)ccc21 [Example 187] |

Further lines, the compound ahead of its results:

| SMILES | Ki [1, 3] | Ki [2] | Ki [2, 4] | Ki [1] |
| --- | --- | --- | --- | --- |
| CC(C)(C(=O)Nc1nncs1)[C@H]1c2ccccc2Oc2nc(N3CCCC(c4ccccc4)C3)ccc21 (stereo partly shown) [Example 147] | 4030 nM |  |  |  |
| CC(C)(C(=O)Nc1nccs1)[C@H]1c2ccccc2Oc2nc(N3CCCCC3)ccc21 [Example 148] | 11.1 nM |  |  |  |
| CN(C)c1ccc2c(n1)Oc1ccccc1[C@@H]2C(C)(C)C(=O)Nc1nncs1 [Example 149] | 11 nM |  |  |  |
| CC1CCCN(c2ccc3c(n2)Oc2ccccc2[C@@H]3C(C)(C)C(=O)Nc2nncs2)C1 (stereo partly shown) [Example 150] | 26.9 nM |  |  |  |
| CCCCNc1ccc2c(c1)Oc1ncccc1C2C(C)(C)C(=O)Nc1nccs1 (stereo not shown) [Example 155] | 31.8 nM |  |  |  |
| CC(C)(C(=O)Nc1nncs1)[C@H]1c2ccccc2Oc2nc(N3CCC(=O)CC3)ccc21 [Example 161] | 36.6 nM |  |  |  |
| CC(C)(C(=O)Nc1nncs1)[C@H]1c2ccccc2Oc2nc(-c3ccccc3)ccc21 [Example 171] | 10.2 nM | 7.15 nM |  |  |
| CC(C)(C(=O)Nc1nncs1)[C@H]1c2ccccc2Oc2nc(-c3cccc4ccccc34)ccc21 [Example 177] | 460 nM |  | > 1150 nM |  |
| CC(C)(C(=O)Nc1nncs1)[C@H]1c2ccccc2Oc2nc(-c3ccc(Cl)cc3)ccc21 [Example 178] | 4.7 nM |  | 10.6 nM |  |
| COC(=O)c1ccc(-c2ccc3c(n2)Oc2ccccc2[C@@H]3C(C)(C)C(=O)Nc2nncs2)cc1 [Example 192] | 13.1 nM |  | 12.3 nM |  |
| CC(C)(C(=O)Nc1nncs1)[C@H]1c2ccccc2Oc2nc(-c3ccc(C#N)cc3)ccc21 [Example 203] | 13.1 nM |  | 4.61 nM |  |

From patent US8034940B2, “Modulators of glucocorticoid receptor, AP-1, and/or NF-κB activity and use thereof” (Bristol-Myers Squibb Company, priority 2006, dated 2011)
